According to patent publication US20240358693A1, “METHODS OF TREATING PAIN” (Aisa Pharma, Inc., priority 2023, published 2024):

Test system: participants with SSc-RP
Assay: Scleroderma Health Assessment Questionnaire (SHAQ): disability indices and visual analog scales
Type: in vivo, human
Conditions: for SHAQ Standard Disability Index: Baseline, Mean / SHAQ Standard Disability Index: Baseline, Median / SHAQ Standard Disability Index: Change from Baseline (Day 12), Mean / SHAQ Standard Disability Index: Change from Baseline (Day 12), Median / SHAQ Standard Disability Index: In-Clinic Visit (Day 12), Mean / SHAQ Standard Disability Index: In-Clinic Visit (Day 12), Median / SHAQ Standard Disability Index: Percent Change from Baseline (Day 12), Mean / SHAQ Standard Disability Index: Percent Change from Baseline (Day 12), Median: PP Population, Part A, sensitivity analysis
Description: The standard, validated, patient reported outcome measures tool for SSc patients, the Scleroderma Health Assessment Questionnaire (SHAQ), will be used to assess the participant qualify of life. Details are attached in the Appendix. The participant quality of life will be scored, and a disability index calculated for each questionnaire completed by the patient at Screening and each in-clinic visit. The absolute change in participant quality of life from baseline to the end of each dosing period will be calculated similar to frequency data as before.
The SHAQ includes a Raynaud's VAS, which will be reported at screening and each in-clinic visit. The absolute change in Raynaud-VAS, assessed by the participants response to the SHAQ question ‘In the past 7 days, how much have your Raynaud's interfered with your daily activities?’ at baseline and the end of each dosing period will be calculated similar to frequency data as before.
The SHAQ is used to calculate a Disability Index to assess the participant qualify of life. The eight categories assessed by the Disability Index are 1) dressing and grooming, 2) arising, 3) eating, 4) walking, 5) hygiene, 6) reach, 7) grip, and 8) common daily activities. For each of these categories, patients report the amount of difficulty they have in performing two or three specific activities.
There are four possible responses for the Disability Index questions: • Without any difficulty=0 • With some difficulty=1 • With much difficulty=2 • Unable to do=3. • The highest score reported by the patient for any component question of the eight categories determines the score for that category. • If a component question is left blank or the response is too ambiguous to assign a score, then the score for that category is determined by the remaining completed question(s). • If all component questions are blank or if more than one answer is given, then follow up with the respondent is required. • If the respondent's mark is between the response columns, then move it to the closest one. If it's directly between the two, move it to the higher one.
Each of the disability items on the SHAQ has a companion aids/devices variable that is used to record what type(s) of assistance, if any, the participant uses for his/her usual activities. These variables (see below) are coded as follows: • 0=No assistance is needed. • 1=A special device is used by the patient in his/her usual activities. • 2=The patient usually needs help from another person. • 3=The patient usually needs BOTH a special device AND help from another person.
The scoring variables and scoring rules permit the computation of two disability indices, the Standard Disability Index and the Alternative Disability Index.
This question results in a new set of category scores that are computed by adjusting the score for each category, if necessary, based on the patient's use of an aid or device or assistance for that category. If either devices and/or help from another person are checked for a category, the score is set to “2”, unless the score is already “3” (i.e., scores of “0” or “1” are increased to “2”). For example, if the highest score for the dressing category is “1”, and the patient says they use a device for dressing, the computed category score would be “2”. The sum of the computed categories scores is then calculated and divided by the number of categories answered. This gives a score in the 0 to 3 range.
The aid and device variables are not used to calculate the alternative disability index; it is calculated by adding the scores for each of the categories and dividing by the number of categories answered. This gives a score in the 0 to 3 range.
The standard, validated, patient reported outcome measures tool for SSc patients, the SHAQ, was collected at the time points specified in the study schedules (FIG. 2 and FIGS. 4A and 4B) to assess the participant's quality of life. The SHAQ included a Raynaud's VAS that will also be reported separately.

[1] = Table C9, Pooled Cilnidipine 10 mg and Cilnidipine 10 mg + Tadalafil 5 mg
[2] = Table C9, Pooled Cilnidipine 20 mg and Cilnidipine 20 mg + Tadalafil 5 mg
[3] = Table C9, pooled cilnidipine 10 mg and 20 mg arms (plus tadalafil 5 mg where labelled)
[4] = Table C10, Pooled Cilnidipine 10 mg and Cilnidipine 10 mg + Tadalafil 5 mg
[5] = Table C10, Pooled Cilnidipine 20 mg and Cilnidipine 20 mg + Tadalafil 5 mg
[6] = Table C10, pooled cilnidipine 10 mg and 20 mg arms (plus tadalafil 5 mg where labelled)

COCCOC(=O)C1=C(C)NC(C)=C(C(=O)OC/C=C/c2ccccc2)C1c1cccc([N+](=O)[O-])c1 (centres unmarked) [Cilnidipine, cilnidipine]
SHAQ % Δ from baseline, VAS Finger Ulcers, median (Pooled cilnidipine (4)): −50.9%
SHAQ % Δ from baseline, alternative disability, mean (Pooled cilnidipine (4)): −12.9%
SHAQ % Δ from baseline, alternative disability, median (Pooled cilnidipine (4)): −22.2%
SHAQ % Δ from baseline, standard disability, mean (Pooled cilnidipine (4)): −25%
SHAQ % Δ from baseline, standard disability, median (Pooled cilnidipine (4)): −16.7%
SHAQ % Δ from baseline, Intestinal Problems, mean (Pooled cilnidipine (5)): −32.4%
SHAQ % Δ from baseline, Intestinal Problems, median (Pooled cilnidipine (5)): −44.1%
SHAQ % Δ from baseline, VAS Overall Disease Severity, mean (Pooled cilnidipine (6)): −59.8%
SHAQ % Δ from baseline, VAS Overall Disease Severity, median (Pooled cilnidipine (6)): −55.9%
SHAQ % Δ from baseline, VAS Pain, mean (Pooled cilnidipine (6)): −31.2%
SHAQ % Δ from baseline, VAS Pain, median (Pooled cilnidipine (6)): −45%
SHAQ % Δ from baseline, VAS Raynaud's, mean (Pooled cilnidipine (6)): −18.6%
SHAQ % Δ from baseline, VAS Raynaud's, median (Pooled cilnidipine (6)): −38.7%
SHAQ Standard Disability Index: Baseline, Mean [1]: 0.597
SHAQ Standard Disability Index: Baseline, Median [1]: 0.500
SHAQ Standard Disability Index: Change from Baseline (Day 12), Mean [1]: −0.021
SHAQ Standard Disability Index: Change from Baseline (Day 12), Median [1]: 0.000
SHAQ Standard Disability Index: In-Clinic Visit (Day 12), Mean [1]: 0.576
SHAQ Standard Disability Index: In-Clinic Visit (Day 12), Median [1]: 0.375
SHAQ Standard Disability Index: Percent Change from Baseline (Day 12), Mean [1]: 7.50%
SHAQ Standard Disability Index: Percent Change from Baseline (Day 12), Median [1]: 0.00%
SHAQ Standard Disability Index: Baseline, Mean [2]: 0.563
SHAQ Standard Disability Index: Baseline, Median [2]: 0.375
SHAQ Standard Disability Index: Change from Baseline (Day 12), Mean [2]: −0.065
SHAQ Standard Disability Index: Change from Baseline (Day 12), Median [2]: 0.000
SHAQ Standard Disability Index: In-Clinic Visit (Day 12), Mean [2]: 0.498
SHAQ Standard Disability Index: In-Clinic Visit (Day 12), Median [2]: 0.250
SHAQ Standard Disability Index: Percent Change from Baseline (Day 12), Mean [2]: −1.66%
SHAQ Standard Disability Index: Percent Change from Baseline (Day 12), Median [2]: −12.82%
SHAQ Standard Disability Index: Baseline, Mean [3]: 0.500
SHAQ Standard Disability Index: Baseline, Median [3]: 0.375
SHAQ Standard Disability Index: Change from Baseline (Day 12), Mean [3]: −0.031
SHAQ Standard Disability Index: Change from Baseline (Day 12), Median [3]: 0.000
SHAQ Standard Disability Index: In-Clinic Visit (Day 12), Mean [3]: 0.469
SHAQ Standard Disability Index: In-Clinic Visit (Day 12), Median [3]: 0.188
SHAQ Standard Disability Index: Percent Change from Baseline (Day 12), Mean [3]: −16.00%
SHAQ Standard Disability Index: Percent Change from Baseline (Day 12), Median [3]: 0.00%
SHAQ Standard Disability Index: Baseline, Mean [4]: 0.597
SHAQ Standard Disability Index: Baseline, Median [4]: 0.500
SHAQ Standard Disability Index: Change from Baseline (Day 12), Mean [4]: −0.021
SHAQ Standard Disability Index: Change from Baseline (Day 12), Median [4]: 0.000
SHAQ Standard Disability Index: In-Clinic Visit (Day 12), Mean [4]: 0.576
SHAQ Standard Disability Index: In-Clinic Visit (Day 12), Median [4]: 0.375
SHAQ Standard Disability Index: Percent Change from Baseline (Day 12), Mean [4]: 7.50%
SHAQ Standard Disability Index: Percent Change from Baseline (Day 12), Median [4]: 0.00%
SHAQ Standard Disability Index: Baseline, Mean [5]: 0.563
SHAQ Standard Disability Index: Baseline, Median [5]: 0.375
SHAQ Standard Disability Index: Change from Baseline (Day 12), Mean [5]: −0.065
SHAQ Standard Disability Index: Change from Baseline (Day 12), Median [5]: 0.000
SHAQ Standard Disability Index: In-Clinic Visit (Day 12), Mean [5]: 0.498
SHAQ Standard Disability Index: In-Clinic Visit (Day 12), Median [5]: 0.250
SHAQ Standard Disability Index: Percent Change from Baseline (Day 12), Mean [5]: −1.66%
SHAQ Standard Disability Index: Percent Change from Baseline (Day 12), Median [5]: −12.82%
SHAQ Standard Disability Index: Baseline, Mean [6]: 0.500
SHAQ Standard Disability Index: Baseline, Median [6]: 0.375
SHAQ Standard Disability Index: Change from Baseline (Day 12), Mean [6]: −0.031
SHAQ Standard Disability Index: Change from Baseline (Day 12), Median [6]: 0.000
SHAQ Standard Disability Index: In-Clinic Visit (Day 12), Mean [6]: 0.469
SHAQ Standard Disability Index: In-Clinic Visit (Day 12), Median [6]: 0.188
SHAQ Standard Disability Index: Percent Change from Baseline (Day 12), Mean [6]: −16.00%
SHAQ Standard Disability Index: Percent Change from Baseline (Day 12), Median [6]: 0.00%
mean decrease in patient reported disease severity on the SHAQ (pooled cilnidipine patients, 10 mg or 20 mg (n=7)): 60%
